± gives the expanded uncertainty stated by the source.
Key:
[1] = Molar enthalpy of transition or fusion; conditions: Crystal; DSC
[2] = Crystal; DTA

In the case of CC(C)(C)C1=CC=C(C(C)(C)C)C(=O)C1=O [3,6-di-tert-butyl-o-benzoquinone], the “Molar enthalpy of transition or fusion” value [1] is reported as 6.69 ± 0.151 kcal/mol and the Normal melting temperature [2] is reported as 202.2 ± 0.6 °C.
In the case of CC(C)(C)C1=CC(=O)C(=O)C(C(C)(C)C)=C1 [3,5-di-tert-butyl-o-benzoquinone], the “Molar enthalpy of transition or fusion” value [1] is reported as 6.26 ± 0.141 kcal/mol and the Normal melting temperature [2] is reported as 115.4 ± 0.6 °C.
